Source: patent publication US12319967B2, “Methods and compositions for diagnosing and treating prostate cancer based on long noncoding RNA overlapping the LCK gene that regulates prostate cancer cell growth” (University of Virginia Patent Foundation, priority 2019, dated 2025)

Tests used:
HULLK [1] = test: qPCR of HULLK (LCK 3'UTR / exon 13) transcript levels in response to hormone and AR, p300 or Brd4 inhibition; format: cell-based, human; settings: for HULLK expression in response to R1881: 1 nM R1881; for R1881-induced increase in LCK 3'UTR transcript levels: 1 nM R1881, 24 hrs
Method: FIGS. 2A through 2E illustrate that HULLK is an AR-regulated lncRNA. […] LNCaP and C42 cells were transduced with two independent shRNAs to LCK and treated with 0-1 nM R1881. RNA was collected on Day 4 and LCK transcript levels were determined using LCK primers targeting the 3′UTR. […] LNCaP and C42 cells were seeded for 48 hrs, and then, treated with 1 nM R1881 in the presence or absence of 10 μM enzalutamide. RNA was collected 24 hrs after treatment and LCK transcript levels were determined by qPCR using LCK primers targeting the 3′UTR. C4-2, DU145, and PC3 cells were seeded in CSS media for 48 hrs, and then, treated with 1 nM R1881 for 16 hrs. RNA was collected and LCK transcript levels were determined using LCK primers targeting the 3′UTR. […] FIG. 2E illustrates that Brd4 inhibition reduces the hormone induction of HULLK, n=3. LNCaP, C42, or Jurkat cells were seeded for 48 hrs in the appropriate growth media, and then, treated with 1 nM R1881 in the presence or absence of 0.3 μM A-485 or 0.1 μM JQ1. RNA was collected 24 hrs after treatment and LCK transcript levels were determined by qPCR using LCK primers targeting exon 13 or 3′UTR. PSA and TMPRSS2 transcripts were determined to verify the efficacy of p300 and Brd4 inhibition.
FIGS. 7A and 7B illustrate the regulation of HULLK by the AR in breast cancer cells. […] LNCaP, MCF7, BT549, and MDA-MD-231 cells were seeded in the appropriate growth media, and whole cell lysates were collected 48 hrs later and blotted for AR21 and ERK1/2. […] MCF7, BT549, and MDA-MB-231 cells were seeded in CSS media for 48 hrs, and then, treated with 1 nM R1881 for 16 hrs. RNA was collected and LCK transcript levels were determined using LCK primers targeting the 3′UTR, n=3.
Cell Culture and Reagents. LNCaP and C4-2 cells (a gift from Dr. L. W. K. Chung) were grown in DMEM:F12 (Invitrogen) with 5% Non-Heat-Inactivated serum (Gemini) and 1% Insulin-Transferrin-Selenium-Ethanolamine (ThermoFisher). CWR22Rv1 (Rv1), VCaP, PC3 (gifts from Drs. Steven Balk, Karen Knudsen, and Chung, respectively), WMPY-1 (ATCC), MCF7, BT549 and MDA-MB-231 (gifts from Dr. Amy Bouton) were grown in DMEM (Invitrogen) with 10% Heat-Inactivated serum. DU145 (a gift from Dr. Chung), PANC1 (a gift from Dr. J. Thomas Parsons), HeLa and Jurkat cells (gifts from Dr. Tim Bender) were grown in RPMI-1640 (Invitrogen) with 10% Heat-Inactivated serum. LHS cells (a gift from Dr. William Hahn) were grown in ProstaLife Epithelial Cell Medium (Lifeline). RWPE-1 (ATCC) cells were grown in Keratinocyte-Serum-Free Media (Invitrogen). For growth and RNA experiments, phenol-red free DMEM:F12 media with 5% Charcoal-Stripped Serum (CSS) (Gemini) was used.
RNA Isolation, qPCR and ddPCR: RNA was collected using TRIzol and quantitated using a NanoDrop 2000 UV-Vis Spectrophotometer (ThermoFisher). cDNA was synthesized using Superscript IV VILO cDNA synthesis kit (Invitrogen). Quantitative real-time PCR (qPCR) was performed as previously described (17,18). Droplet digital PCR (ddPCR) was executed according to the manufacturer's protocol (Bio-Rad).
To assess whether this lncRNA is modulated by hormone, transcript levels of this lncRNA were quantified by qPCR using 3′UTR primers in LNCaP and C4-2 cells transduced in the presence of increasing concentrations of R1881 (FIG. 2A). […] This increase was inhibited in the presence of two independent LCK shRNAs in both cell lines.
This hormone regulation was confirmed by measuring transcript amounts in LNCaP and C4-2 cells treated with vehicle or R1881 in the presence or absence of the anti-androgen enzalutamide (FIG. 2B). As expected, there was an 8-fold and 12-fold R1881-induced increase in LCK 3′UTR transcript levels in LNCaP and C4-2 cells, respectively. […] Androgen deprivation influenced message levels negligibly in LNCaP cells, but decreased transcript amounts of this lncRNA by approximately 2.9-fold in C4-2 cells (FIG. 2B, C4-2 vehicle vs. media). […]

HULLK [2] = test: qPCR of HULLK (LCK E11, LCK 3'UTR) in cytoplasmic and nuclear fractions of LNCaP cells; format: cell-based, human; settings: 1 nM R1881, 24 hrs
Method: FIGS. 3A and 3B illustrate the results of studies designed to characterize HULLK. […] LNCaP cells were seeded for 48 hrs and treated with 1 nM R1881 for 24 hrs. RNA was collected and cDNA was synthesized using strand-specific primers. qPCR was performed with two independent LCK primer sets that amplify HULLK, n=3. […] LNCaP cells were seeded for 48 hrs and treated with 1 nM R1881 for 24 hrs. Whole cell lysates were separated into cytoplasmic and nuclear fractions by centrifugation. RNA was collected from each fraction and cDNA was synthesized using the iScript cDNA synthesis kit. qPCR was performed with two independent LCK primer sets that amplify HULLK, and cytoplasmic and nuclear control genes, n=3.
Some lncRNAs show preferential accumulation in the cytoplasm or nucleus, while other lncRNAs are equally expressed in both compartments. To determine the intracellular localization of HULLK, total RNA was collected to synthesize cDNA from cytoplasmic and nuclear fractions of LNCaP cells starved of hormone or exposed to 1 nM R1881 for 24 hrs and carried out qPCR with LCK E11 and LCK 3′UTR primers to amplify HULLK.

Q: For C[C@]1(O)CC[C@H]2[C@@H]3CCC4=CC(=O)CCC4=C3C=C[C@@]21C [R1881], which “R1881-induced increase in this lncRNA (HULLK)” value (HULLK [1]; AR-null DU145 and PC3 cells, 1 nM R1881, 16 hrs) is on record?
A: The value was “no R1881-induced increase”.

Q: What about the “HULLK expression in response to R1881” value (HULLK [1]; BT549 or MDA-MB-231 cells) of the same compound?
A: Its value is “not”.

Q: What about the “R1881-induced increase in LCK 3'UTR transcript levels” value (HULLK [1]; C4-2 cells) of the same compound?
A: Its value is 12 fold.

Q: And the “lncRNA transcripts in response to increasing concentrations of R1881” value (HULLK [1]; LNCaP and C4-2 cells, 0-1 nM R1881, 3'UTR primers)?
A: Its value is “dose-dependent increase”.

Q: And the “R1881-induced increase in LCK 3'UTR transcript levels” value (HULLK [1]; LNCaP cells)?
A: Its value is 8 fold.

Q: And the “HULLK expression in response to R1881” value (HULLK [1]; MCF7 cells)?
A: The value was “increases”.

Q: What about the “hormone increase of LCK 3'UTR transcript levels” value (HULLK [2]; cytoplasmic fraction) of the same compound?
A: Its value is about 7.6 fold.

Q: What about the “hormone increase of LCK E11 transcript levels” value (HULLK [2]; cytoplasmic fraction) of the same compound?
A: The value was “approximately 5.3 fold”.

Q: And the “nuclear transcript amounts (LCK E11, LCK 3'UTR) in response to androgens” value (HULLK [2]; nuclear fraction)?
A: Its value is “not influenced by androgens”.
